Reference: patent publication US20080206761A1, “Ex Vivo Gene Expression in Whole Blood as a Model of Assessment of Individual Variation to Dietary Supplements” (priority 2005, published 2008)

Assays:
Format in all cases: cell-based, human
IL-2 mRNA = test: PHA-induced IL-2 mRNA expression in heparinized whole blood ex vivo; details: for ΔΔCt (mean ± standard deviation, n = 3), IL-2 mRNA: supplement 30 min, concentrations per footnote; for effect on PHA-induced IL-2 expression, in words: summary over 7 subjects of Table I
Description: (§1) In this embodiment, phytohemagglutinin-induced gene expression of interleukin-2 (IL-2), interleukin-4 (IL-4), and tumor necrosis factor-α (TNF-α) were quantitated in the following manner. Fifty μL of heparinized whole blood was incubated with various dietary supplements for a period of 30 minutes. The following supplements were employed: vitamins A, C, and D, epigallocatechin gallate (from green tea), genistein (from soy), and curcumin (from the spice turmeric). Vitamin A is known to stimulate the immune system. […] Vitamin D appears to have protective effects against certain cancers. Epigallocatechin gallate is a powerful antioxidant, appears to reduce the multidrug resistance found in cancer cells, and preferentially induces apoptosis in neoplastic cells. Genistein has been found in some studies to have anticarcinogenic activity; possible mechanisms of action include upregulation of apoptosis, inhibition of angiogenesis, inhibition of DNA topoisomerase II and inhibition of protein tyrosine kinases. Curcumin has proapoptotic effects in neoplastic cells and interferes with the activity of the transcription factor NF-κB, which is often highly overexpressed in such cells.
(§2) After incubation with the dietary supplement, 100 μg/mL phytohemagglutinin (PHA) was added and incubation was continued for an additional 2 hours at 37° C. The concentration of each dietary supplement (see Table I, note) was slightly higher than reported blood levels. Then mRNA was purified, cDNA was synthesized, and the levels of IL-2, IL-4, and TNF-α were quantitated by TaqMan real time polymerase chain reaction (PCR) (see Holland, et al., “Detection of specific polymerase chain reaction product by utilizing the 5′ to 3′ exonuclease activity of Thermus aquaticus DNA polymerase,” Proc Natl Acad Sci USA 1991; 88: 7276-80), as described below.
(§3) The mRNA and cDNA were prepared from the whole blood that was exposed to the dietary components, as well as the whole blood which remained unexposed. In brief, home-made 96-well filterplates were placed over collection plates, and 150 μl 5 mM Tris, pH 7.4, was applied. Following centrifugation at 120×g for 1 min at 4° C., 50 μl of blood samples were applied to each well and immediately centrifuged at 120×g for 2 min at 4° C., followed by washing of each well with 300 μl PBS once with centrifugation at 2000×g for 5 min at 4° C. Then, 60 μl stock lysis buffer, containing for example 0.5% N-Lauroylsarcosine, 4×SSC, 10 mM Tris HCl, pH 7.4, 1 mM EDTA, 0.1% IGEPAL CA-630, and 1.791 M guanidine thiocyanate, supplemented with 1% 2-mercaptoethanol (Bio Rad, Hercules, Calif., USA), 0.5 mg/ml proteinase K (Pierce, Rockford, Ill., USA), 0.1 mg/ml salmon sperm DNA (5 Prime Eppendorf/Brinkmann, Westbury, N.Y., USA), 0.1 mg/ml E. coli tRNA (Sigma), a cocktail of 10 mM each of the specific reverse primers shown in Table 2, and standard RNA34 oligonucleotides, were applied to the filterplates, followed by incubation at 37° C. for 10 min. The filterplates were then placed over oligo(dT)-immobilized microplates (GenePlate, RNAture), and centrifuged at 2000×g for 5 min at 4° C. Following overnight storage at 4° C., the microplates were washed with 100 μl plain lysis buffer 3 times, followed by 150 μl of wash buffer (0.5 M NaCl, 10 mM Tris, pH 7.4, 1 mM EDTA) 3 times at 4° C. The cDNA was directly synthesized in each well by adding 30 μl of buffer containing 1×RT-buffer, 1.25 mM each of dNTP, 4 units rRNasin, and 80 units of MMLV reverse transcriptase (Promega) (without primers), and incubation at 37° C. for 2 hours. The specific primer-primed cDNA existed in solution, and oligo(dT)-primed cDNA stayed immobilized in the microplate. […]

TNF-α mRNA = test: PHA-induced TNF-α mRNA expression in heparinized whole blood ex vivo; details: for ΔΔCt (mean ± standard deviation, n = 3), TNFα mRNA: supplement 30 min, then 100 μg/mL PHA 2 h, concentrations per footnote; for effect on PHA-induced TNF-α expression, in words: summary over 7 subjects of Table I
Description: as §1, §2, §3

IL-4 mRNA = test: PHA-induced IL-4 mRNA expression in heparinized whole blood ex vivo; details: for ΔΔCt (mean ± standard deviation, n = 3), IL-4 mRNA: supplement 30 min, then 100 μg/mL PHA 2 h, concentrations per footnote; for effect on PHA-induced IL-4 expression, in words: summary over 7 subjects of Table I
Description: as §1, §2, §3

[1] = tested on: CD32A mRNA (IgG Fc receptor); test: CD32A mRNA level in leukocytes after exposure of whole blood to dietary components (no stimulating agent); details: one individual; 3 hours at 37° C.; PBS control
Description: In brief, home-made 96-well filterplates were placed over collection plates, and 150 μl 5 mM Tris, pH 7.4, was applied. Following centrifugation at 120×g for 1 min at 4° C., 50 μl of blood samples were applied to each well and immediately centrifuged at 120×g for 2 min at 4° C., followed by washing of each well with 300 μl PBS once with centrifugation at 2000×g for 5 min at 4° C. […] The filterplates were then placed over oligo(dT)-immobilized microplates (GenePlate, RNAture), and centrifuged at 2000×g for 5 min at 4° C. Following overnight storage at 4° C., the microplates were washed with 100 μl plain lysis buffer 3 times, followed by 150 μl of wash buffer (0.5 M NaCl, 10 mM Tris, pH 7.4, 1 mM EDTA) 3 times at 4° C. […] The specific primer-primed cDNA existed in solution, and oligo(dT)-primed cDNA stayed immobilized in the microplate. […] Each gene was amplified in separate wells. The Ct was determined by analytical software (SDS, ABI).

[2] = Subject 1, then 100 μg/mL PHA 2 h 37° C., negative = increased expression
[3] = Subject 2, then 100 μg/mL PHA 2 h
[4] = Subject 3, then 100 μg/mL PHA 2 h
[5] = Subject 4, then 100 μg/mL PHA 2 h
[6] = Subject 5, then 100 μg/mL PHA 2 h
[7] = Subject 6, then 100 μg/mL PHA 2 h
[8] = Subject 7, then 100 μg/mL PHA 2 h

Compound	ΔΔCt (mean ± standard deviation, n = 3), IL-2 mRNA (IL-2 mRNA; [2])	ΔΔCt (mean ± standard deviation, n = 3), IL-2 mRNA (IL-2 mRNA; [3])	ΔΔCt (mean ± standard deviation, n = 3), IL-2 mRNA (IL-2 mRNA; [4])	ΔΔCt (mean ± standard deviation, n = 3), IL-2 mRNA (IL-2 mRNA; [5])	ΔΔCt (mean ± standard deviation, n = 3), IL-2 mRNA (IL-2 mRNA; [6])	ΔΔCt (mean ± standard deviation, n = 3), IL-2 mRNA (IL-2 mRNA; [7])	ΔΔCt (mean ± standard deviation, n = 3), IL-2 mRNA (IL-2 mRNA; [8])	ΔΔCt (mean ± standard deviation, n = 3), TNFα mRNA (TNF-α mRNA; Subject 1)	ΔΔCt (mean ± standard deviation, n = 3), TNFα mRNA (TNF-α mRNA; Subject 2)	ΔΔCt (mean ± standard deviation, n = 3), TNFα mRNA (TNF-α mRNA; Subject 3)	ΔΔCt (mean ± standard deviation, n = 3), TNFα mRNA (TNF-α mRNA; Subject 4)	ΔΔCt (mean ± standard deviation, n = 3), TNFα mRNA (TNF-α mRNA; Subject 5)	ΔΔCt (mean ± standard deviation, n = 3), TNFα mRNA (TNF-α mRNA; Subject 6)	ΔΔCt (mean ± standard deviation, n = 3), TNFα mRNA (TNF-α mRNA; Subject 7)	ΔΔCt (mean ± standard deviation, n = 3), IL-4 mRNA (IL-4 mRNA; Subject 1)	ΔΔCt (mean ± standard deviation, n = 3), IL-4 mRNA (IL-4 mRNA; Subject 2)	ΔΔCt (mean ± standard deviation, n = 3), IL-4 mRNA (IL-4 mRNA; Subject 3)	ΔΔCt (mean ± standard deviation, n = 3), IL-4 mRNA (IL-4 mRNA; Subject 4)	ΔΔCt (mean ± standard deviation, n = 3), IL-4 mRNA (IL-4 mRNA; Subject 5)	ΔΔCt (mean ± standard deviation, n = 3), IL-4 mRNA (IL-4 mRNA; Subject 6)	other results
O=C1O[C@H]([C@@H](O)CO)C(O)=C1O [VC, vitamin C]	−0.18 ± 0.54	0.00 ± 0.60	1.04 ± 0.21	1.47 ± 0.19	−0.80 ± 0.13	1.02 ± 0.05	0.07 ± 0.27	−1.82 ± 0.65	0.10 ± 1.14	−0.04 ± 0.27	0.09 ± 0.16	−1.21 ± 0.14	−0.48 ± 0.04	−0.40 ± 0.15	−2.20 ± 0.72	−0.86 ± 0.62	−0.77 ± 0.40	−0.43 ± 0.17	−1.22 ± 0.17	−0.77 ± 0.09	ΔΔCt (mean ± standard deviation, n = 3), IL-4 mRNA (IL-4 mRNA; Subject 7): −1.30 ± 0.22; effect on PHA-induced IL-4 expression, in words (IL-4 mRNA): enhanced IL-4 expression, with 1-3 exceptions
vitamin E																					conclusion from CD32A mRNA levels (FIG. 2), in words [1]: would be suitable for use in this individual in a diet optimized for anti-cancer activity
CCCCC/C=C\C/C=C\C/C=C\CCCCC(=O)O [γ-linoleic acid, γ-linoleic acids]																					conclusion from CD32A mRNA levels (FIG. 2), in words [1]: would be suitable for use in this individual in a diet optimized for anti-cancer activity
COc1cc(/C=C/C(=O)CC(=O)/C=C/c2ccc(O)c(OC)c2)ccc1O [Cur., curcumin]	1.47 ± 0.59	2.51 ± 0.23	0.31 ± 0.14	0.33 ± 0.27	0.03 ± 0.20	0.01 ± 0.14	−0.01 ± 0.21	3.52 ± 1.84	3.64 ± 2.26	0.83 ± 0.60	0.45 ± 0.15	0.13 ± 0.17	0.07 ± 0.01	0.12 ± 0.21	1.27 ± 0.78	3.09 ± 0.15	−0.01 ± 0.07	0.10 ± 0.27	0.00 ± 0.20	0.10 ± 0.13	effect on PHA-induced IL-2 expression, in words (IL-2 mRNA): significantly decreased IL-2, IL-4, and TNF-α expression in 2 cases; effect on PHA-induced TNF-α expression, in words (TNF-α mRNA): significantly decreased IL-2, IL-4, and TNF-α expression in 2 cases; ΔΔCt (mean ± standard deviation, n = 3), IL-4 mRNA (IL-4 mRNA; Subject 7): 0.52 ± 0.26; effect on PHA-induced IL-4 expression, in words (IL-4 mRNA): significantly decreased IL-2, IL-4, and TNF-α expression in 2 cases
O=C(O[C@@H]1Cc2c(O)cc(O)cc2O[C@@H]1c1cc(O)c(O)c(O)c1)c1cc(O)c(O)c(O)c1 [EGCG, epigallocatechin gallate]	−0.1 ± 0.02	−0.67 ± 0.48	1.32 ± 0.54	0.81 ± 0.11	−0.99 ± 0.33	1.1 ± 0.14	−0.41 ± 0.29	−1.14 ± 0.32	−0.63 ± 0.66	0.33 ± 0.62	−0.16 ± 0.12	−1.22 ± 0.29	−0.66 ± 0.14	−0.94 ± 0.46	−1.83 ± 0.20	−1.56 ± 0.46	−0.82 ± 0.34	0.92 ± 0.25	−1.37 ± 0.3	−0.9 ± 0.01	effect on PHA-induced IL-2 expression, in words (IL-2 mRNA): 3 out of 7 persons showed decreases, 1 showed an increase, and 3 were unchanged; effect on PHA-induced TNF-α expression, in words (TNF-α mRNA): showed individual variations; ΔΔCt (mean ± standard deviation, n = 3), IL-4 mRNA (IL-4 mRNA; Subject 7): −1.47 ± 0.41; effect on PHA-induced IL-4 expression, in words (IL-4 mRNA): enhanced PHA-induced IL-4 expression in all 7 cases; conclusion from CD32A mRNA levels (FIG. 2), in words [1]: would be suitable for use in this individual in a diet optimized for anti-cancer activity
